Results reported in patent US7638512B2, “Phenylaminopropanol derivatives and methods of their use” (Wyeth, priority 2004, dated 2009).
Structures can show the parent of a compound that is named as a salt.

The molecules below were run against T1, human hNET (Homo sapiens, UniProt P23975) (assay: Norepinephrine (NE) uptake assay). Settings: 1 μM test compound; MDCK-Net6 cells stably transfected with human hNET; [3H]NE uptake.
T1 construct: expressed in transfected cells
Format: cell-based
Protocol: MDCK-Net6 cells, stably transfected with human hNET (Pacholczyk, T., R. D. Blakely, and S. G. Amara, Nature, 1991, 350(6316): p. 350-4) were cultured in growth medium containing high glucose DMEM (Gibco, Cat. No. 11995), 10% FBS (dialyzed, heat-inactivated, US Bio-Technologies, Lot FBD1129HI) and 500 µg/ml G418 (Gibco, Cat. No. 10131). Cells were plated at 300,000/T75 flask and cells were split twice weekly. The JAR cell line (human placental choriocarcinoma) was purchased from ATCC (Cat. No. HTB-144). The cells were cultured in growth medium containing RPMI 1640 (Gibco, Cat. No. 72400), 10% FBS (Irvine, Cat. No. 3000), 1% sodium pyruvate (Gibco, Cat. No. 1136) and 0.25% glucose. Cells were plated at 250,000 cells/T75 flask and split twice weekly. For all assays, cells were plated in Wallac 96-well sterile plates (PerkinElmer, Cat. No. 3983498).
On day 1, cells were plated at 3,000 cells/well in growth medium and maintained in a cell incubator (37° C., 5% CO2). On day 2, growth medium was replaced with 200 μl of assay buffer (25 mM HEPES; 120 mM NaCl; 5 mM KCl; 2.5 mM CaCl2; 1.2 mM MgSO4; 2 mg/ml glucose (pH 7.4, 37° C.)) containing 0.2 mg/ml ascorbic acid and 10 μM pargyline. Plates containing cells with 200 μl of assay buffer were equilibrated for 10 minutes at 37° C. prior to addition of compounds. A stock solution of desipramine was prepared in DMSO (10 mM) and delivered to triplicate wells containing cells for a final test concentration of 1 μM. Data from these wells were used to define non-specific NE uptake (minimum NE uptake). Test compounds were prepared in DMSO (10 mM) and diluted in assay buffer according to test range (1 to 10,000 nM). Twenty-five microliters of assay buffer (maximum NE uptake) or test compound were added directly to triplicate wells containing cells in 200 μl of assay buffer. The cells in assay buffer with test compounds were incubated for 20 minutes at 37° C. To initiate the NE uptake, [^3H]NE diluted in assay buffer (120 nM final assay concentration) was delivered in 25 μl aliquots to each well and the plates were incubated for 5 minutes (37° C.). The reaction was terminated by decanting the supernatant from the plate. The plates containing cells were washed twice with 200 μl assay buffer (37° C.) to remove free radioligand. The plates were then inverted, left to dry for 2 minutes, then reinverted and air-dried for an additional 10 minutes. The cells were lysed in 25 μl of 0.25 N NaOH solution (4° C.), placed on a shake table and vigorously shaken for 5 minutes. After cell lysis, 75 μl of scintillation cocktail was added to each well and the plates were sealed with film tape. The plates were returned to the shake table and vigorously shaken for a minimum of 10 minutes to ensure adequate partitioning of organic and aqueous solutions. The plates were counted in a Wallac Microbeta counter (PerkinElmer) to collect the raw cpm data.
For each experiment, a data stream of cpm values collected from the Wallac Microbeta counter was downloaded to a Microsoft Excel statistical application program. Calculations of EC50 values were made using the transformed-both-sides logistic dose response program written by Wyeth Biometrics Department. The statistical program uses mean cpm values from wells representing maximum binding or uptake (assay buffer) and mean cpm values from wells representing minimum binding or uptake ((1 μM desipramine (hNET) or 1 μM paroxetine (hSERT)). Estimation of the EC50 value was completed on a log scale and the line was fit between the maximum and minimum binding or uptake values. All graphic data representation was generated by normalizing each data point to a mean percent based on the maximum and minimum binding or uptake values. The EC50 values reported from multiple experiments were calculated by pooling the raw data from each experiment and analyzing the pooled data as one experiment.

T1 sequence (P23975 whole entry): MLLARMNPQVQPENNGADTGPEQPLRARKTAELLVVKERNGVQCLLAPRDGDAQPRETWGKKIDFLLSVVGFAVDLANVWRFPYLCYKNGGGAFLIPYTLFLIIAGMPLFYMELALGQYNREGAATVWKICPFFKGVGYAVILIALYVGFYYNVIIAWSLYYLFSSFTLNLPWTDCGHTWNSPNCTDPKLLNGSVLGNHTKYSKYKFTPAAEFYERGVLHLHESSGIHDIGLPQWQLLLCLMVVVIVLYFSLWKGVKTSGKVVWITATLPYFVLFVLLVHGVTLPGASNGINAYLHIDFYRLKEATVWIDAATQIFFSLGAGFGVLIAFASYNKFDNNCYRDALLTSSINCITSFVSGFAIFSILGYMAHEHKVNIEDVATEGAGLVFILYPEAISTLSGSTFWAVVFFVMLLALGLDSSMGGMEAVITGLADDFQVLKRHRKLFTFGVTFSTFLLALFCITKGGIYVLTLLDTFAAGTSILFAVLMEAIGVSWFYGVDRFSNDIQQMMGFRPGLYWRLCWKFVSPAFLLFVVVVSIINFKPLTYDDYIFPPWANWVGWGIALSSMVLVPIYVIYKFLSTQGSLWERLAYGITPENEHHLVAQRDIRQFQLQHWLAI

First: CNC[C@H](O)[C@@H](c1ccccc1)N1CCOc2ccc(Cl)cc21 (single isomer, unassigned) [Example 14, hydrochloride]
Second: CNC[C@@H](O)[C@H](c1ccccc1)N1CCOc2ccc(Cl)cc21 (single isomer, unassigned) [Example 13, hydrochloride]
The inhibition at 1 µM of the first is higher: 41.5% for the first, 38.6% for the second.

Compared with `CNC[C@@H](O)[C@H](c1cc(F)cc(F)c1)N1CCOc2ccc(Cl)cc21` [Example 8, (1S,2R)-1-(6-chloro-2,3-dihydro-4H-1,4-benzoxazin-4-yl)-1-(3,5-difluorophenyl)-3-(methylamino)propan-2-ol hydrochloride], `CNC[C@@H](O)[C@H](c1cccc(F)c1)N1CCOc2ccc(Cl)cc21` [Example 15, (1S,2R)-1-(6-chloro-2,3-dihydro-4H-1,4-benzoxazin-4-yl)-1-(3-fluorophenyl)-3-(methylamino)propan-2-ol hydrochloride] is higher in inhibition at 1 µM: 12.5% for the first, 41.4% for the second.

Going from `CNC[C@@H](O)[C@H](c1ccccc1)N1CCOc2ccccc21` (racemic) [Example 2, (1RS,2SR)-1-(2,3-dihydro-4H-1,4-benzoxazin-4-yl)-3-(methylamino)-1-phenylpropan-2-ol dihydrochloride] to `CNC[C@@H](O)[C@H](c1ccccc1)N1CCOc2ccc(Cl)cc21` (racemic) [Example 11, (1RS,2SR)-1-(6-chloro-2,3-dihydro-4H-1,4-benzoxazin-4-yl)-3-(methylamino)-1-phenylpropan-2-ol hydrochloride], the inhibition at 1 µM rises from 33.7% to 60.6%.

Compared with `CNC[C@@H](O)[C@H](c1cccc(F)c1)N1CC(C)Oc2ccccc21` (stereo partly drawn) [Example 9, (1S,2R)-1-(3-fluorophenyl)-3-(methylamino)-1-(2-methyl-2,3-dihydro-4H-1,4-benzoxazin-4-yl)propan-2-ol hydrochloride], `CNC[C@@H](O)[C@H](c1cccc(F)c1)N1CC(C)(C)Oc2ccccc21` [Example 16, (1S,2R)-1-(2,2-dimethyl-2,3-dihydro-4H-1,4-benzoxazin-4-yl)-1-(3-fluorophenyl)-3-(methylamino)propan-2-ol hydrochloride] is lower in inhibition at 1 µM: 53.9% for the first, 10% for the second.

Going from `CNC[C@@H](O)[C@H](c1ccccc1)N1CCN(CC(F)(F)F)c2ccccc21` (racemic) [Example 5, (1SR,2RS)-3-(methylamino)-1-phenyl-1-[4-(2,2,2-trifluoroethyl)-3,4-dihydroquinoxalin-1(2H)-yl]propan-2-ol hydrochloride] to `CNC[C@@H](O)[C@H](c1ccccc1)N1CCN(C)c2ccccc21` (racemic) [Example 4, (1SR,2RS)-3-(methylamino)-1-(4-methyl-3,4-dihydroquinoxalin-1(2H)-yl)-1-phenylpropan-2-ol hydrochloride], the inhibition at 1 µM falls from 52.9% to 46.2%.

First: CNC[C@@H](O)[C@H](c1cccc(F)c1)N1C[C@@H](c2ccccc2)Oc2ccccc21 (single isomer, unassigned) [Example 20, hydrochloride]
Second: CNC[C@@H](O)[C@H](c1cccc(F)c1)N1CC(c2ccccc2)Oc2ccccc21 (stereo partly drawn) [Example 19, (1S,2R)-1-(3-fluorophenyl)-3-(methylamino)-1-(2-phenyl-2,3-dihydro-4H-1,4-benzoxazin-4-yl)propan-2-ol hydrochloride]
The inhibition at 1 µM of the first is higher: 97.2% for the first, 95% for the second.

Going from `CNC[C@@H](O)[C@H](c1ccccc1)N1CC(C)(C)Oc2ccccc21` [Example 17, (1S,2R)-1-(2,2-dimethyl-2,3-dihydro-4H-1,4-benzoxazin-4-yl)-3-(methylamino)-1-phenylpropan-2-ol hydrochloride] to `CNC[C@@H](O)[C@H](c1cccc(F)c1)N1C[C@H](c2ccccc2)Oc2ccccc21` (single isomer, unassigned) [Example 21, hydrochloride], the inhibition at 1 µM rises from 9.3% to 51.7%.

First: CNC[C@@H](O)[C@H](c1ccccc1)N1CCOc2ccc(C)cc21 (racemic) [Example 12, (1RS,2SR)-3-(methylamino)-1-(6-methyl-2,3-dihydro-4H-1,4-benzoxazin-4-yl)-1-phenylpropan-2-ol hydrochloride]
Second: CNC[C@@H](O)[C@H](c1cccc(F)c1)N1CCSc2ccccc21 [Example 18, (1S,2R)-1-(2,3-dihydro-4H-1,4-benzothiazin-4-yl)-1-(3-fluorophenyl)-3-(methylamino)propan-2-ol hydrochloride]
The inhibition at 1 µM of the first is lower: 3.4% for the first, 90.4% for the second.
